The source of these data is patent US8552023B2, “Non-amidic linkers with branched termini as CGRP receptor antagonists” (Merck Sharp & Dohme Corp., priority 2008, dated 2013).

SMILES strings stand for the structures. pKi: −log10 of the molar value.

Sequence of recombinant human CL receptor/RAMP1 (Q16602 23-461): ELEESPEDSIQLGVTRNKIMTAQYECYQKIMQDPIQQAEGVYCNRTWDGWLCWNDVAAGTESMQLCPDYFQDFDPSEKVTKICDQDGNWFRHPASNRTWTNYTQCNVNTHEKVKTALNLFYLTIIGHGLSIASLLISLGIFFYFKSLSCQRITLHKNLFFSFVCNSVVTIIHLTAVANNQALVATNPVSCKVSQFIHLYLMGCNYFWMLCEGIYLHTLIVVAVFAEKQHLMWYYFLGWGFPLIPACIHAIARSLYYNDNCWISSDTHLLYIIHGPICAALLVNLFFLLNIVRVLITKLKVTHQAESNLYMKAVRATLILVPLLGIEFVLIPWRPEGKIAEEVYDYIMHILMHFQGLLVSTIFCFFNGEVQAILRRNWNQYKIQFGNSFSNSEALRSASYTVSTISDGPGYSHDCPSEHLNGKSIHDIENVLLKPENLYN
Sequence of recombinant human CL receptor/RAMP1 (O60894 27-148): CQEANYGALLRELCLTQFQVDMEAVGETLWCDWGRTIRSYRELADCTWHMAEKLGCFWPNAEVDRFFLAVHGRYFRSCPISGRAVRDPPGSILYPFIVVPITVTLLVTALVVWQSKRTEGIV

One assay addresses recombinant human CL receptor/RAMP1 (Homo sapiens (Human), UniProt O60894+Q16602). The assay is described as follows: Human CGRP receptor binding (recombinant receptor binding assay, 125I-hCGRP). To be noted: read-out: Human CGRP receptor binding Ki. As for the experimental part: RECOMBINANT RECEPTOR: Human CL receptor (Genbank accession number L76380) was subcloned into the expression vector pIREShyg2 (BD Biosciences Clontech) as a 5′NheI and 3′ PmeI fragment. Human RAMP1 (Genbank accession number AJ001014) was subcloned into the expression vector pIRESpuro2 (BD Biosciences Clontech) as a 5′NheI and 3′NotI fragment. HEK 293 cells (human embryonic kidney cells; ATCC #CRL-1573) were cultured in DMEM with 4.5 g/L glucose, 1 mM sodium pyruvate and 2 mM glutamine supplemented with 10% fetal bovine serum (FBS), 100 units/mL penicillin and 100 μg/mL streptomycin, and maintained at 37° C. and 95% humidity. Cells were subcultured by treatment with 0.25% trypsin with 0.1% EDTA in HBSS. Stable cell line generation was accomplished by co-transfecting 10 μg of DNA with 30 μg Lipofectamine 2000 (Invitrogen) in 75 cm^2 flasks. CL receptor and RAMP1 expression constructs were co-transfected in equal amounts. Twenty-four hours after transfection the cells were diluted and selective medium (growth medium+300 μg/mL hygromycin and 1 μg/mL puromycin) was added the following day. A clonal cell line was generated by single cell deposition utilizing a FACS Vantage SE (Becton Dickinson). Growth medium was adjusted to 150 μg/mL hygromycin and 0.5 μg/mL puromycin for cell propagation.
The cell suspension was disrupted with a laboratory homogenizer and centrifuged at 48,000 g to isolate membranes. The pellets were resuspended in harvest buffer plus 250 mM sucrose and stored at −70° C. For binding assays, 20 μg of membranes were incubated in 1 ml binding buffer (10 mM HEPES, pH 7.4, 5 mM MgCl2, and 0.2% BSA) for 3 hours at room temperature containing 10 pM ^125I-hCGRP (GE Healthcare) and antagonist. The assay was terminated by filtration through 96-well GFB glass fiber filter plates (PerkinElmer) that had been blocked with 0.05% polyethyleneimine. The filters were washed 3 times with ice-cold assay buffer (10 mM HEPES, pH 7.4 and 5 mM MgCl2). Scintillation fluid was added and the plates were counted on a Topcount (Packard). Non-specific binding was determined and the data analysis was carried out with the apparent dissociation constant (Ki) determined by using a non-linear least squares fitting the bound CPM data to the equation below: […]
In general, pKi refers to −log10 of the Ki, conventionally taken in molar units. On to `CC(C)(C)C(=O)N(CC#Cc1ccc2c(c1)CC1(C2)C(=O)Nc2ncccc21)Cc1ccccc1` (centres unmarked) [Example 1, N-Benzyl-2,2-dimethyl-N-[3-(2′-oxo-1,1′,2′,3-tetrahydrospiro[indene-2,3′-pyrrolo[2,3-b]pyridin]-5-yl)prop-2-yn-1-yl]propanamide], for which the pKi is 7.70. Consider `CC(C)(C)C(=O)N(CCCc1ccc2c(c1)CC1(C2)C(=O)Nc2ncccc21)Cc1ccccc1` (centres unmarked) [Example 2, N-benzyl-2,2-dimethyl-N-[3-(2′-oxo-1,1′,2′,3-tetrahydrospiro[indene-2,3′-pyrrolo[2,3-b]pyridin]-5-yl)propyl]propanamide], for which the pKi was 7.35. On the same count and under the same terms, next, `CC(C)(CF)C(=O)N(C/C=C/c1cnc2c(c1)C[C@@]1(C2)C(=O)Nc2ncccc21)[C@@H]1CCc2ccccc21` [Example 3, N-[(1R)-2,3-dihydro-1H-inden-1-yl]-3-fluoro-2,2-dimethyl-N-{(2E)-3-[(6S)-2′-oxo-1′,2′,5,7-tetrahydrospiro[cyclopenta[b]pyridine-6,3′-pyrrolo[2,3-b]pyridin]-3-yl]prop-2-en-1-yl}propanamide]: 10.22.

The same assay, now with this note: read-out: Ki.
For `Cc1ccc([C@@H](C)N(C/C=C/c2cnc3c(c2)C[C@@]2(C3)C(=O)Nc3ncccc32)C(=O)C(C)(C)C)cc1F` [Example 13], the pKi was 9.89. Same read-out and setting: the value for `C[C@H](c1cc(F)cc(F)c1)N(C/C=C/c1cnc2c(c1)C[C@@]1(C2)C(=O)Nc2ncccc21)C(=O)C(C)(C)CCl` [Example 6] was 10.19; that for `C[C@H](c1cc(F)cc(F)c1)N(C/C=C/c1ccc2c(c1)C[C@@]1(C2)C(=O)NC(=O)N1C)C(=O)C(C)(C)C` [Example 8] was 9.37. On the same count and under the same terms, the value for `C[C@H](c1cc(F)cc(F)c1)N(C/C=C/c1cnc2c(c1)C[C@@]1(C2)C(=O)Nc2ncccc21)C(=O)C(C)(C)CF` [Example 7] was 10.39. For `C[C@H](c1cc(F)cc(F)c1)N(C/C=C/c1cnc2c(c1)C[C@@]1(C2)C(=O)Nc2ncccc21)C(=O)C1(C(F)(F)F)CC1` [Example 11], the pKi is 10.30.
